The results in this text go back to US10827753B2, “Compositions and methods for controlling nematodes” (Monsanto Technology LLC, priority 2007, dated 2020).

Marks after values point to notes of the source that are not given here.

The subject of assay [1] is Meloidogyne incognita. The experiment in a line: M. incognita miniaturized greenhouse assay on cucumber seedlings (root galling). The settings on record: for 8 ppm gall ratings: average of triplicate gall rating, scale 0-3 (% root mass galled). It counts as in vivo. Also on record: key to 1 ppm gall ratings / 1 ppm gall rating: mean of 3 gall ratings: 0=0-5%, 1=6-20%, 2=21-50%, 3=51-100% root galled. The protocol: The test compound is dissolved in an acetone solution and added to water. A sprouted cucumber seedling is placed into a vial with dry sand and the water-chemical solution is added immediately. Twenty four hours later Meloidogyne incognita eggs are added to the vials and 10 to 12 days later the roots are evaluated for nematode galling.
Cucumber seeds are sprouted for 3 days in moist paper towels. Acceptable sprouts should be 3 to 4 cm long with several lateral roots just emerging. Stock solutions of chemistry are prepared in a mixture of acetone and Triton X100 (412 mg in 500 mL) to a final concentration of 5 mg/mL. The chemical stock solution is then added to 10 mL deionized water plus 0.015% Triton X100 and mixed thoroughly. This is enough to test each condition in triplicate. Ten mL dry sand is added to each vial. At this time the solubility of the chemistry is visually determined and recorded as either ppt (large precipitates) or cloudy (fine precipitates). Seedlings are planted by tilting the vial and laying the seedling in the correct orientation so that the cotyledons are just above the sand and then tilting back to cover the radicles with sand. 3.3 ml water/chemical mix is added to each vial and the vials placed in racks under fluorescent light banks. The vials are inoculated two days after planting by adding 500 vermiform M. incognita eggs to each vial in 50 uL of deionized or spring water. The vials are then kept under the fluorescent lamps at ambient room temperature and watered as needed with 1 mL deionized water, usually twice during duration of test. Harvest of the cucumber plants is done 10 to 12 days after inoculation by washing sand off the roots. A root gall rating and visual phytotoxicity rating is assigned using the following scales: Gall rating scale (Gall: % root mass galled): 0=0-5%; 1=6-20%; 2=21-50%; and 3=51-100%. The average of the triplicate gall rating is then calculated: green=0.00-0.33 (no galls); yellow=0.67-1.33 (mild galling); orange=1.67-2.33 (moderate galling); red=2.67-3.00 (severe galling). Visual phytotoxicity scale is also assigned (Vis. tox; visual reduction in root mass compared to the control): rs1=mild stunting; rs2=moderate stunting; rs3=severe stunting.

Assay [2] relates to Meloidogyne incognita. Nature of the assay: Summer field evaluation of pre-plant incorporated compounds on squash. It counts as in vivo. The conditions noted are these: 2 kg PPI, squash. Here is the method:
Test plots of 33 cm diameter holes were bored 41 cm deep into clay soil and filled with a mixture of 80% sand and 20% silt loam soil. Technical compound for each treatment was dissolved in 50 ml acetone containing 250 ul of Triton X-100 surfactant. This solution was added to 450 ml water and poured onto 95 liters of sand/soil mixture in a rotating drum mixer. While continuing to rotate the mixing drum 66 grams of chopped, galled, tomato roots was added and thoroughly distributed. The treated soil was sufficient to fill the top 15 cm of each of the 6 replicate plots, thus simulating a PPI treatment. The plots were then watered lightly and a mixture of M. incognita eggs and larvae were injected 5 cm deep at 5 points within the plot (100 k eggs/larvae in 10 ml per plot). Three-week old squash (cv. Liberator III) with 1 fully expanded true leaf was planted 4 days after soil treatment, one per plot.

Regarding `c1ccc(-c2cc(-c3ccco3)n[nH]2)cc1` [3-(furan-2-yl)-5-phenyl-1H-pyrazole, reference compound], the “nematicidal activity (in words, referring to table 1D)” value in the assay with Meloidogyne incognita [1] (8 ppm) is on record as “nematicidal activity is seen”. As to `c1ccc(-c2nc(-c3cccs3)cs2)cc1` [compound 1787], the “1 ppm gall rating” value in the assay with Meloidogyne incognita [1] (Table 1D test b) was 3^b (3=51-100%). In the assay with Meloidogyne incognita [1] (8 ppm, Table 1D test b), the “8 ppm gall rating” value is 1.67^b. Turning to `Brc1ccc(-c2nnc(-c3cccs3)o2)cc1` [compound 4948], the “8 ppm gall ratings” value in the assay on Meloidogyne incognita [1] (8 ppm) was 0 (0=0-5%). `FC(F)(F)c1ccc(-c2nnc(-c3cccs3)o2)cc1` [compound 4971]: in the assay with Meloidogyne incognita [1] (8 ppm), the “8 ppm gall ratings” value is on record as 0.67. For the compound `Cc1ccc(-c2nnc(-c3cccs3)o2)cc1` [compound 5006], the “8 ppm gall ratings” value in the assay with Meloidogyne incognita [1] (8 ppm) was 0 (0=0-5%). Take `Clc1cccc(-c2nnc(-c3cccs3)o2)c1` [compound 5012]: in the assay with Meloidogyne incognita [1] (8 ppm), the “8 ppm gall ratings” value was 0.67. On to `Clc1ccc(-c2nnc(-c3ccco3)o2)cc1` [compound 5082], for which the “8 ppm gall ratings” value with Meloidogyne incognita [1] (8 ppm) came to 1.67.

For `Cc1ccccc1-c1nnc(-c2cccs2)o1` [compound 5090], the “8 ppm gall ratings” value with Meloidogyne incognita [1] (8 ppm) stood at 1.67. Regarding `FC(F)(F)c1ccc(-c2nnc(-c3ccco3)o2)cc1` [compound 5132], the “8 ppm gall ratings” value with Meloidogyne incognita [1] (8 ppm) turned out to be 1.33. As to `FC(F)(F)c1cccc(-c2noc(-c3ccco3)n2)c1` [compound 5181], the “8 ppm gall ratings” value in the assay with Meloidogyne incognita [1] (8 ppm) came out at 0.33. With `FC(F)(F)c1cccc(-c2noc(-c3cccs3)n2)c1` [compound 5212], the “8 ppm gall ratings” value with Meloidogyne incognita [1] (8 ppm) is 1 (1=6-20%). On to `c1cncc(-c2noc(-c3ccco3)n2)c1` [compound 5292], for which the “8 ppm gall ratings” value with Meloidogyne incognita [1] (8 ppm) was found to be 0.67. In the case of `c1cncc(-c2noc(-c3cccs3)n2)c1` [compound 5297], in the assay with Meloidogyne incognita [1] (8 ppm), the “8 ppm gall ratings” value is 0.33. On to `c1ccc(-c2noc(-c3ccco3)n2)cc1` [compound 5383], for which the “1 ppm gall ratings” value in the assay with Meloidogyne incognita [1] (Table 1B test a) is 1.33^a. As for `c1csc(-c2nnc(-c3cccc4ccccc34)o2)c1` [compound 5456], the “8 ppm gall ratings” value in the assay on Meloidogyne incognita [1] (8 ppm) is 0.67. On to `Ic1ccc(-c2noc(-c3cccs3)n2)cc1` [compound 5468], for which the “8 ppm gall ratings” value in the assay with Meloidogyne incognita [1] (8 ppm) is given as 1 (1=6-20%). On to `Brc1ccc(-c2nc(-c3cccs3)no2)cc1` [compound 5475], for which the “8 ppm gall ratings” value in the assay on Meloidogyne incognita [1] (8 ppm) amounted to 1.33. Same read-out and setting: with `Fc1ccc(-c2noc(-c3ccco3)n2)cc1` [compound 5478] the figure was 0 (0=0-5%). For `Clc1ccc(-c2nnc(-c3ccco3)o2)c(Cl)c1` [compound 5499], the “1 ppm gall ratings” value in the assay with Meloidogyne incognita [1] (Table 1B test a) was 1^a (1=6-20%). For the same compound, the “8 ppm gall ratings” value in the assay on Meloidogyne incognita [1] (8 ppm) was 0 (0=0-5%). With `Ic1ccc(-c2noc(-c3ccco3)n2)cc1` [compound 5556], the “8 ppm gall ratings” value in the assay on Meloidogyne incognita [1] (8 ppm) was found to be 0.33.

Regarding `c1ccc(-c2cnc(-c3ccco3)o2)cc1` [compound 5586], the “8 ppm gall ratings” value in the assay with Meloidogyne incognita [1] (8 ppm) is reported as 0.67. In the case of `Brc1ccc(-c2cnc(-c3ccco3)o2)cc1` [compound 5587], in the assay with Meloidogyne incognita [1] (8 ppm), the “8 ppm gall ratings” value is recorded as 0 (0=0-5%). On to `Fc1ccc(-c2cnc(-c3ccco3)o2)cc1` [compound 5618], for which the “8 ppm gall ratings” value in the assay with Meloidogyne incognita [1] (8 ppm) stood at 1.33.

Consider `Cc1cccc(-c2noc(-c3cccs3)n2)c1` [compound 5622], for which the “8 ppm gall ratings” value in the assay with Meloidogyne incognita [1] (8 ppm) is 0 (0=0-5%). Same read-out and setting: as for `Cc1ccc(-c2noc(-c3cccs3)n2)cc1` [compound 5623], the figure is 0 (0=0-5%). On the same count and under the same terms, as for `Cc1cccc(-c2noc(-c3ccco3)n2)c1` [compound 5625], the figure is 0.33. In the case of `c1ccc(-c2csc(-c3cccs3)n2)cc1` [compound 5645], in the assay with Meloidogyne incognita [1] (Table 1D test b), the “1 ppm gall rating” value is recorded as 2^b (2=21-50%). For the same compound, the “8 ppm gall rating” value in the assay with Meloidogyne incognita [1] (8 ppm, Table 1D test b) was 0^b (0=0-5%). As for `Brc1cccc(-c2noc(-c3cccs3)n2)c1` [compound 5663], in the assay with Meloidogyne incognita [1] (Table 1D test b), the “1 ppm gall rating” value was 1.67^b. Besides, in the assay on Meloidogyne incognita [1] (8 ppm, Table 1D test b), the “8 ppm gall rating” value is 0^b (0=0-5%). The “8 ppm gall ratings” value in the assay on Meloidogyne incognita [1] (8 ppm) is reported as 0 (0=0-5%).

Regarding `Cc1ccc(-c2nnc(-c3ccco3)o2)cc1` [compound 5666], the “8 ppm gall ratings” value with Meloidogyne incognita [1] (8 ppm) was found to be 1.33. On to `Brc1cccc(-c2nnc(-c3ccco3)o2)c1` [compound 5671], for which, in the assay with Meloidogyne incognita [1] (8 ppm), the “8 ppm gall ratings” value is 0.67. Same read-out and setting: with `Brc1cccc(-c2noc(-c3ccco3)n2)c1` [compound 5672] the figure was 0 (0=0-5%).

In the case of `c1ccc(-c2cc(-c3ccco3)n[nH]2)cc1` [compound 5725], in the assay on Meloidogyne incognita [1] (Table 1D test a), the “1 ppm gall rating” value was 3^a (3=51-100%). Also, the “8 ppm gall rating” value in the assay on Meloidogyne incognita [1] (8 ppm, Table 1D test a) is 1.33^a. For `Cc1ccc(-c2noc(-c3ccco3)n2)cc1` [compound 5735], in the assay with Meloidogyne incognita [1] (Table 1D test a), the “1 ppm gall rating” value was 2^a (2=21-50%). In addition, the “8 ppm gall rating” value with Meloidogyne incognita [1] (8 ppm, Table 1D test a) is 0^a (0=0-5%). On the same counts, the results for `Clc1ccccc1-c1noc(-c2cccs2)n1` [compound 5738] are 1.33^a and 0^a (0=0-5%). As for `Cc1ccccc1-c1noc(-c2cccs2)n1` [compound 5741], the “1 ppm gall rating” value in the assay on Meloidogyne incognita [1] (Table 1D test a) is given as 1^a (1=6-20%). Moreover, in the assay with Meloidogyne incognita [1] (8 ppm, Table 1D test a), the “8 ppm gall rating” value is 0^a (0=0-5%). Take `Clc1ccc(-c2cnc(-c3cccs3)o2)cc1` [compound 5864]: in the assay with Meloidogyne incognita [1] (Table 1B test a), the “1 ppm gall ratings” value is listed as 1^a (1=6-20%). Consider `Cc1occc1-c1nc(-c2ccc(Cl)cc2)no1` [compound 5867], for which the “1 ppm gall rating” value in the assay with Meloidogyne incognita [1] (Table 1C test a) is on record as 1^a (1=6-20%).

As to `COc1ccc(-c2noc(-c3ccoc3C)n2)cc1` [compound 5869], the “1 ppm gall rating” value with Meloidogyne incognita [1] (Table 1C test a) is 1^a (1=6-20%). On to `Cc1cc(Cl)ccc1-c1nnc(-c2ccoc2)o1` [compound 5876], for which the “1 ppm gall rating” value with Meloidogyne incognita [1] (Table 1C test c) is reported as 1.67^c. For the compound `Clc1ccc(-c2noc(-c3ccoc3)n2)cc1` [compound 5882], in the assay on Meloidogyne incognita [1] (Table 1B test a), the “1 ppm gall ratings” value is on record as 0.67^a. The “1 ppm gall rating” value in the assay on Meloidogyne incognita [1] (Table 1C test c) is recorded as 0.67^c. As for `Clc1ccc(-c2noc(-c3ccsc3)n2)cc1` [compound 5885], the “1 ppm gall rating” value with Meloidogyne incognita [1] (Table 1C test a) was 1^a (1=6-20%). Take `Clc1ccc(-c2cnc(-c3ccsc3)o2)cc1` [compound 5886]: the “1 ppm gall rating” value in the assay with Meloidogyne incognita [1] (Table 1C test b) is 1.33^b. As for `Clc1ccc(-c2cnc(-c3ccoc3)o2)cc1` [compound 5887], the “1 ppm gall rating” value with Meloidogyne incognita [1] (Table 1C test b) is reported as 1^b (1=6-20%).

With `Cc1cc(Cl)ccc1-c1nc(-c2ccco2)no1` [compound 5969], the “1 ppm gall ratings” value with Meloidogyne incognita [1] (Table 1B test e) is 1^e (1=6-20%). As for `Fc1cc(Cl)ccc1-c1ncc(-c2cccs2)o1` [compound 5970], the “1 ppm gall ratings” value in the assay with Meloidogyne incognita [1] (Table 1B test e) is reported as 1^e (1=6-20%). For the compound `CCOP(=O)(SC(C)CC)N1CCSC1=O` (centres unmarked) [fosthiazate, reference compound], in the assay on Meloidogyne incognita [2], the “0-3 vigor 16 DAP” value is given as 3.0, the “0-3 vigor 21 DAP” value came out at 3.0, the “feeder root (3 = ave) 31 DAP” value is recorded as 2.3 and the “gall % 31 DAP” value is recorded as 5%. Besides, in the assay with Meloidogyne incognita [2], the “root wgt (g) 31 DAP” value is 26.4 g, the “top wgt (lbs) 31 DAP” value was 2.01 lbs and the “total fruit (lbs)” value was 1.25 lbs.
